Assay results reported in patent publication US20260027078A1, “Cyclopropane Fatty Acid Modulators Of Peroxisome Proliferator-Activated Receptors” (The Regents of the University of California, priority 2022, published 2026).

Test system: Angptl4 mRNA expression in 3T3-L1 cells
Test: Angptl4 mRNA expression (RT-qPCR) in 3T3-L1 cells
Assay type: cell-based, murine
Conditions: antagonist 0, 0.1, 1 and 10 μM, against GW7647, GW501516 or rosiglitazone respectively
Procedure: To study the effect of CpFAs on the regulation of Angptl4 expression, Angptl4 mRNA expression levels were quantified by real-time qPCR in cultured murine 3T3-L1 cells. […] FIG. 7A-C show a dose-dependent response to representative CpFAs in murine 3T3-L1 cells.
3T3-L1 cell culture and PPAR activation: 3T3-LI preadipocytes were cultured in growth medium (high glucose Dulbecco's Modified Eagle Medium (DMEM) containing 10% calf serum (CS), 1× Pencillin/Streptomycin, and 1× Glutamax) and seeded in multi-well (12-or 24-well) plates. PPAR specificity of gene target activation was determined in 3T3-L1 preadipocytes using well-described agonists and antagonists for PPAR-α, PPAR-δ, or PPAR-γ. On the day of treatment, preadipocytes were serum starved in 0.25% CS in growth medium for 2-4 hours. Cells were pretreated with increasing concentrations (0, 0.1, 1 and 10 μM) of PPAR antagonists (GW6471 for PPAR-α, GSK3787 for PPARδ, and T0070907 for PPARγ) in serum starve medium. After 1 hour, selective PPAR agonists were added (GW7647 (PPAR-α), GW501516 (PPAR-δ), and rosiglitazone (PPAR-γ)) and incubated for 24 hours. Lysates were collected for RNA extraction. […] CpFA treatments (final concentrations of 37.5, 75, and 150 μM) were prepared in 0.25% serum starve media plus 3% BSA, followed by heating (55° C.) and sonicating for 30 minutes. Treatments were allowed to cool to 37° C. and then added to 3T3-L1 preadipocytes and incubated for 24 hours. Lysates for RNA isolation were collected.
Angptl4 expression analyses: RNA was isolated from cell lysates using Qiagen 96 Total RNA kit. cDNA was synthesized and plated in triplicates in 384-well plates. RT-qPCR was performed using TaqMan Fast-Advanced master mix and TaqMan reagents and primers (18S, rplp0, angplt4) and analyzed using a Thermo Fisher Scientific QuantStudio 6 Flex PCR system. Relative gene expression was analyzed using the fold difference algorithm (2∧(−ΔΔCt)) using the geomean of 2 housekeeping genes (18S, RPLPO) compared to relevant vehicle control.

Compound | reversal of synthetic PPAR agonist activity on Angptl4 mRNA expression
O=C(NCCS(=O)(=O)c1ccc(C(F)(F)F)cn1)c1ccc(Cl)cc1 [GSK3787] | concentration-dependent ability
CCC(=O)NC[C@H](Cc1ccc(OCCc2nc(-c3ccccc3)oc2C)cc1)N/C(C)=C\C(=O)c1ccc(C(F)(F)F)cc1 [GW6471] | concentration-dependent ability
O=C(Nc1ccncc1)c1cc([N+](=O)[O-])ccc1Cl [T0070907] | concentration-dependent ability
